Residues, ends and D or L forms follow the SMILES beside them. No end group written: not given here. *: point of attachment. NH(β-GlcNAc) = CC(=O)N[C@@H]1[C@@H](O)[C@H](O)[C@@H](CO)O[C@H]1N*; αGalNAc = CC(=O)N[C@@H]1[C@@H](O)[C@@H](O)[C@@H](CO)O[C@@H]1*
Tests used:
[1] = test system: recombinant catalytic domain of ADAM17; assay: recombinant catalytic domain of ADAM17 in 25 mM Hepes (pH 9.0); conditions: 37°C, up to 16 h
ADAM17 = test system: T1, ADAM17; assay: In vitro cleavage assay of IL-6R (glyco)peptides with recombinant ADAM17; conditions: human, isolated enzyme, pH 9
T1 construct: catalytic domain (aa Pro-18 to Val-477) of ADAM17; purchased Enzo Life Sciences GmbH (Lörrach, Germany)
Procedure: Fig 7 The N- and O-glycosylated sequon adjacent to the cleavage site is of minor importance for IL-6R cleavage. (A) Amino-acid sequence of the two unglycosylated peptides 1(QD) and 2(QA). Peptides were incubated either with or without recombinant ADAM17 for 16 h at 37°C, and the amount of cleaved peptide was analyzed by reversed-phase (RP) chromatography. (B) Amino-acid sequence of the two glycopeptides 3(QD) and 4(QA), which have a GlcNAc attached to the amino-acid residue corresponding to Asn-350 of the IL-6R. Cleavage was determined as described in panel (A). (C) Amino-acid sequence of the two glycopeptides 5(QD) and 6(QA), which have a biantennary N-glycan attached to the amino-acid residue corresponding to Asn-350 of the IL-6R. Cleavage was determined as described in panel (A). (D) Amino-acid sequence of the two glycopeptides 7(QD) and 8(QA), which have a GalNAc attached to the amino-acid residue corresponding toThr-352 of the IL-6R. Cleavage was determined as described in panel (A). (E) Amino-acid sequence of the two glycopeptides 9(QD) and 10(QA), which have a biantennary N-glycan attached to the amino-acid residue corresponding to Asn-350 and a GalNAc attached to the amino-acid residue corresponding toThr-352 of the IL-6R. Cleavage was determined as described in panel (A). All data shown are the mean ± SD from three independent experiments (*p < 0.05, **p < 0.01, ***p < 0.001, compared to the untreated peptide; ^§p < 0.05, compared to the cleaved nonglycosylated peptide).
Two 1.5 ml reaction tubes were filled with 50 μl peptide (50 μM) solved in 25 mM Hepes (pH 9.0), and 0.5 μl of the recombinant catalytic domain of ADAM17 was added to one of the reaction tubes, whereas the other sample remained untreated. All samples were incubated for 16 h at 37°C. Afterwards, 1,150 μl 0.1% TFA was added to each sample, and the peptides were separated on a reverse phase chromatography column (Multo High Bio-200-C18) from Chromatographie Service (Langerwehe, Germany) using a linear gradient elution with a binary solvent system and a flow rate of 1 ml/min. Solvent A consisted of 0.1% TFA, and solvent B consisted of 100% ACN. After peak integration, peak areas for cleaved and noncleaved peptides were determined.

[2] = test system: Ba/F3-gp130-IL-6R_DG cells; assay: Proliferation in response to IL-6 or Hyper-IL-6 (S4H Fig); assay type: cell-based; conditions: highest value = 100, mean of n = 3
Procedure: (§1) Proliferation of the different Ba/F3-gp130-IL-6R cell lines in response to IL-6 and Hyper-IL-6 and of Ba/F3-gp130 cells in response to IL-6 and the two different recombinant sIL-6R variants was determined using the Cell Titer Blue Cell viability assay reagent (Promega, Karlsruhe, Germany), following the manufacturer’s protocol as described previously. Values were measured in triplicates per experiment, and relative light units (RLU) obtained after 60 min were normalized by subtraction of control values obtained after 0 min. The maximum proliferation was set to 100%, and all other values were calculated accordingly.
Supplementary file pbio.2000080.s004.tif: S4 Fig Mutation of Val-356 is sufficient to block ADAM10-mediated proteolysis of the IL-6R and the Asp358Ala variant. (A) HEK293 cells were transiently transfected with Expression plasmids encoding the wildtype IL-6R (PV) or the double mutants (IE, DG) as indicated. Cells were either treated with 1 μM ionomycin for 1 h or DMSO as vehicle control. sIL-6R was precipitated from the supernatant with concanavalin A-covered Sepharose beads, and cells were lysed. Both were analyzed via Western blot, and β-actin served as loading control. One out of three experiments with similar outcome is shown. (B, C) The experiment was performed as described under (A), but sIL-6R generation was analyzed via ELISA. In (B), the amount of sIL-6R generated after ionomycin-stimulation of the wildtype IL-6R (PV) was set to 100%, and all other values were calculated accordingly. In (C), the amount of sIL-6R without stimulation was considered as constitutive shedding and set to 1 and the increase of sIL-6R was calculated. Data shown are the mean ± SD from at least three independent experiments (*p<0.05, ns = no significant difference). (D-F) HEK293 cells were transiently transfected with expression plasmids encoding the wildtype IL-6R (PV) or the single mutants (DV, IV, PE, PG) as indicated. The experiments were performed as described in (A) to (C). (G) ADAM10-mediated proteolysis of the IL-6R variants depicted in Fig 4I was analyzed as described in (B). (H) Equal numbers of Ba/F3-gp130-IL-6R_DG cells were incubated for 48 h with increasing amounts (0–100 ng/ml) of either IL-6 or Hyper-IL-6. One representative experiment out of three performed is shown (mean ± SD, biological triplicates). (TIF) Click here for additional data file.

[3] = test system: Ba/F3-gp130-hIL-6R 2N cells; assay: Proliferation in response to IL-6 or Hyper-IL-6 (S6B Fig); assay type: cell-based; conditions: highest value = 100, mean of n = 3
Source text: (§2) In order to analyze a functional role for the determined glycans, we created IL-6R mutants that lacked either one, multiple, or all N-glycosylation sites and stably transduced Ba/F3-gp130 cells with these. […] When we analyzed IL-6-dependent proliferation of the individual cell lines, we could not detect a difference between the wild-type IL-6R (Fig 4K), IL-6R mutants lacking one of the five N-glycosylation sites (Fig 6A–6E), IL-6R mutants lacking two (termed 2N), three (3N), or four N-glycosylation sites (4N, S6B–S6D Fig), or the IL-6R mutant that lacked all five N-glycans (5N, Fig 6F). Similarly, mutation of the O-glycosylation site on Thr-352 had no influence on IL-6 signaling (Fig 6G).
as §1
(§3) Supplementary file pbio.2000080.s006.tif: S6 Fig Cell-surface expression and signaling capacity of different N-glycan mutants. (A) Cell-surface expression of the IL-6R on the individual Ba/F3-gp130-IL-6R cell lines. The stably transduced IL-6R mutant is indicated above the histogram. Staining is shown in color, whereas the control staining is shown in gray. One out of three experiments with similar outcome is shown. (B-D) Equal numbers of cells of the indicated Ba/F3-gp130-hIL-6R cell line were incubated for 48 h with increasing amounts (0–100 ng/ml) of either IL-6 or Hyper-IL-6. One representative experiment out of three performed is shown (mean ± SD, biological triplicates). (TIF) Click here for additional data file.

[4] = test system: Ba/F3-gp130-hIL-6R 3N cells; assay: Proliferation in response to IL-6 or Hyper-IL-6 (S6C Fig); assay type: cell-based; conditions: highest value = 100, mean of n = 3
Source text: as §2, §1, §3

[5] = test system: Ba/F3-gp130-hIL-6R-4N cells; assay: Proliferation in response to IL-6 or Hyper-IL-6 (S6D Fig); assay type: cell-based; conditions: highest value = 100, mean of n = 3
Source text: as §2, §1, §3

NILFRDSANATSLPVQDSSSVPLP [3(QD)]
not cleaved [1]: 91.4% ± 9.4% intact after 16 h

NILFRDSANATSLPVQDSSSVPLP [7(QD)]
not cleaved [1]: 91% ± 8% after 16 h

CC[C@H](C)[C@H](NC(=O)[C@@H](N)CC(N)=O)C(=O)N[C@@H](CC(C)C)C(=O)N[C@@H](Cc1ccccc1)C(=O)N[C@@H](CCCNC(=N)N)C(=O)N[C@@H](CC(=O)O)C(=O)N[C@@H](CO)C(=O)N[C@@H](C)C(=O)N[C@@H](CC(=O)N[C@@H]1O[C@H](CO)[C@@H](O)[C@H](O)[C@H]1NC(C)=O)C(=O)N[C@@H](C)C(=O)N[C@H](C(=O)N[C@@H](CO)C(=O)N[C@@H](CC(C)C)C(=O)N1CCC[C@H]1C(=O)N[C@H](C(=O)N[C@@H](CCC(N)=O)C(=O)N[C@@H](C)C(=O)N[C@@H](CO)C(=O)N[C@@H](CO)C(=O)N[C@@H](CO)C(=O)N[C@H](C(=O)N1CCC[C@H]1C(=O)N[C@@H](CC(C)C)C(=O)N1CCC[C@H]1C(=O)O)C(C)C)C(C)C)[C@@H](C)O [4(QA)] (H-NILFRDSAD(NH(β-GlcNAc))ATSLPVQASSSVPLP-OH)
remaining at 16 h, 50 μM (ADAM17): 0.4%

CC[C@H](C)[C@H](NC(=O)[C@@H](N)CC(N)=O)C(=O)N[C@@H](CC(C)C)C(=O)N[C@@H](Cc1ccccc1)C(=O)N[C@@H](CCCNC(=N)N)C(=O)N[C@@H](CC(=O)O)C(=O)N[C@@H](CO)C(=O)N[C@@H](C)C(=O)N[C@@H](CC(N)=O)C(=O)N[C@@H](C)C(=O)N[C@H](C(=O)N[C@@H](CO)C(=O)N[C@@H](CC(C)C)C(=O)N1CCC[C@H]1C(=O)N[C@H](C(=O)N[C@@H](CCC(N)=O)C(=O)N[C@@H](C)C(=O)N[C@@H](CO)C(=O)N[C@@H](CO)C(=O)N[C@@H](CO)C(=O)N[C@H](C(=O)N1CCC[C@H]1C(=O)N[C@@H](CC(C)C)C(=O)N1CCC[C@H]1C(=O)O)C(C)C)C(C)C)[C@@H](C)O[C@H]1O[C@H](CO)[C@H](O)[C@H](O)[C@H]1NC(C)=O [8(QA)] (H-NILFRDSANAT(αGalNAc)SLPVQASSSVPLP-OH)
remaining at 16 h, 50 μM (ADAM17): 10.8%

CC[C@H](C)[C@H](NC(=O)[C@@H](N)CC(N)=O)C(=O)N[C@@H](CC(C)C)C(=O)N[C@@H](Cc1ccccc1)C(=O)N[C@@H](CCCNC(=N)N)C(=O)N[C@@H](CC(=O)O)C(=O)N[C@@H](CO)C(=O)N[C@@H](C)C(=O)N[C@@H](CC(=O)N[C@@H]1O[C@H](CO)[C@@H](O)[C@H](O)[C@H]1NC(C)=O)C(=O)N[C@@H](C)C(=O)N[C@H](C(=O)N[C@@H](CO)C(=O)N[C@@H](CC(C)C)C(=O)N1CCC[C@H]1C(=O)N[C@H](C(=O)N[C@@H](CCC(N)=O)C(=O)N[C@@H](CC(=O)O)C(=O)N[C@@H](CO)C(=O)N[C@@H](CO)C(=O)N[C@@H](CO)C(=O)N[C@H](C(=O)N1CCC[C@H]1C(=O)N[C@@H](CC(C)C)C(=O)N1CCC[C@H]1C(=O)O)C(C)C)C(C)C)[C@@H](C)O [3(QD)] (H-NILFRDSAD(NH(β-GlcNAc))ATSLPVQDSSSVPLP-OH)
remaining at 16 h, 50 μM (ADAM17): 91.4%

NILFRDSANATSLPVQASSSVPLP [2(QA)]
remaining at 16 h, 50 μM (ADAM17): 0.93%

IL-6: recombinant human interleukin-6
proliferation, Figure S4H, mean ([2]; cytokine 0.001 ng/ml): 4.604
proliferation, Figure S4H, mean ([2]; cytokine 0.01 ng/ml): 11.7535
proliferation, Figure S4H, mean ([2]; cytokine 0.1 ng/ml): 45.6464
proliferation, Figure S4H, mean ([2]; cytokine 1 ng/ml): 77.0141
proliferation, Figure S4H, mean ([2]; cytokine 10 ng/ml): 92.624
proliferation, Figure S4H, mean ([2]; cytokine 100 ng/ml): 70.8452
proliferation, Figure S6B, mean ([3]; cytokine 0.001 ng/ml): 10.1623
proliferation, Figure S6B, mean ([3]; cytokine 0.01 ng/ml): 21.276
proliferation, Figure S6B, mean ([3]; cytokine 0.1 ng/ml): 41.189
proliferation, Figure S6B, mean ([3]; cytokine 1 ng/ml): 78.0666
proliferation, Figure S6B, mean ([3]; cytokine 10 ng/ml): 86.7819
proliferation, Figure S6B, mean ([3]; cytokine 100 ng/ml): 79.1326
proliferation, Figure S6C, mean ([4]; cytokine 0.001 ng/ml): 8.138
proliferation, Figure S6C, mean ([4]; cytokine 0.01 ng/ml): 15.3684
proliferation, Figure S6C, mean ([4]; cytokine 0.1 ng/ml): 39.4534
proliferation, Figure S6C, mean ([4]; cytokine 1 ng/ml): 92.5489
proliferation, Figure S6C, mean ([4]; cytokine 10 ng/ml): 89.1651
proliferation, Figure S6C, mean ([4]; cytokine 100 ng/ml): 87.3482
proliferation, Figure S6D, mean ([5]; cytokine 0.001 ng/ml): 7.259
proliferation, Figure S6D, mean ([5]; cytokine 0.01 ng/ml): 22.724
proliferation, Figure S6D, mean ([5]; cytokine 0.1 ng/ml): 61.9479
proliferation, Figure S6D, mean ([5]; cytokine 1 ng/ml): 88.3209
proliferation, Figure S6D, mean ([5]; cytokine 10 ng/ml): 84.8559
proliferation, Figure S6D, mean ([5]; cytokine 100 ng/ml): 63.7775

CC[C@H](C)[C@H](NC(=O)[C@@H](N)CC(N)=O)C(=O)N[C@@H](CC(C)C)C(=O)N[C@@H](Cc1ccccc1)C(=O)N[C@@H](CCCNC(=N)N)C(=O)N[C@@H](CC(=O)O)C(=O)N[C@@H](CO)C(=O)N[C@@H](C)C(=O)N[C@@H](CC(N)=O)C(=O)N[C@@H](C)C(=O)N[C@H](C(=O)N[C@@H](CO)C(=O)N[C@@H](CC(C)C)C(=O)N1CCC[C@H]1C(=O)N[C@H](C(=O)N[C@@H](CCC(N)=O)C(=O)N[C@@H](CC(=O)O)C(=O)N[C@@H](CO)C(=O)N[C@@H](CO)C(=O)N[C@@H](CO)C(=O)N[C@H](C(=O)N1CCC[C@H]1C(=O)N[C@@H](CC(C)C)C(=O)N1CCC[C@H]1C(=O)O)C(C)C)C(C)C)[C@@H](C)O[C@H]1O[C@H](CO)[C@H](O)[C@H](O)[C@H]1NC(C)=O [7(QD)] (H-NILFRDSANAT(αGalNAc)SLPVQDSSSVPLP-OH)
remaining at 16 h, 50 μM (ADAM17): 91%

NILFRDSANATSLPVQDSSSVPLP [1(QD)]
remaining at 16 h, 50 μM (ADAM17): 86%

Reference: PMC5218472 (PLoS Biology, 2017)
